The results in this text go back to ChEMBL document CHEMBL1240308, “Elevated levels of oxidized cholesterol metabolites in Lewy body disease brains accelerate alpha-synuclein fibrilization” (Nat Chem Biol, 2006).

SMILES strings stand for the structures. Activity calls are given as the source filed them. No cut-off for these calls is given here.

Data set [1] addresses Alpha-synuclein (Homo sapiens) (UniProt P37840). Nature of the data set: Induction of alpha-synuclein aggregation in PBS buffer assessed as fluorescence after 330 hrs by Thioflavin T fluorescence assay.
The target is the same in data set [2]. As to the kind of experiment: Induction of alpha-synuclein aggregation in PBS buffer assessed as transition of alpha-synuclein from natively unfolded monomer to cross-beta-sheet conformation after 330 hrs by CD spectroscopy.
The target is the same in data set [3]. As to the kind of experiment: Induction of alpha-synuclein aggregation in PBS buffer assessed as alpha-synuclein monomer depletion after 48 hrs by size exclusion chromatography.
The target is the same in data set [4]. Nature of the data set: Induction of alpha-synuclein aggregation in PBS buffer assessed as alpha-synuclein monomer depletion after 96 hrs by size exclusion chromatography. In general terms: SEC sorts molecules by how far they enter the pores of the column.
Data set [5] shares this target. As to the kind of experiment: Induction of alpha-synuclein aggregation in PBS buffer assessed as transition of alpha-synuclein from natively unfolded monomer to cross-beta-sheet conformation after 72 hrs by CD spectroscopy.
The target is the same in data set [6]. As to the kind of experiment: Induction of alpha-synuclein aggregation in PBS buffer assessed as fluorescence after 96 hrs by Thioflavin T fluorescence assay.
The target is the same in data set [7]. Nature of the data set: Induction of alpha-synuclein aggregation in PBS buffer assessed as transition of alpha-synuclein from natively unfolded monomer to cross-beta-sheet conformation after 48 hrs by CD spectroscopy.
The target is the same in data set [8]. As to the kind of experiment: Induction of alpha-synuclein aggregation in PBS buffer assessed as fluorescence after 72 hrs by Thioflavin T fluorescence assay.
Data set [9] has the same target. Nature of the data set: Induction of alpha-synuclein aggregation in PBS buffer assessed as alpha-synuclein monomer depletion after 72 hrs by size exclusion chromatography.
The test system of data set [10] is SH-SY5Y. As to the kind of experiment: Cytotoxicity against human SH-SY5Y cells overexpressing alpha-synuclein at 20 uM after 48 hrs by LDH assay. The data set is classed as cell-based.
Data set [11] relates to SH-SY5Y. As to the kind of experiment: Cytotoxicity against human SH-SY5Y cells overexpressing alpha-synuclein at 20 uM after 48 hrs by MTT assay. The data set is classed as cell-based. In general terms: Tetrazolium dyes change colour on reduction, which living cells bring about.
The target of data set [12] is Alpha-synuclein (Homo sapiens) (UniProt P37840). As to the kind of experiment: Induction of alpha-synuclein aggregation in PBS buffer assessed as fluorescence after 48 hrs by Thioflavin T fluorescence assay.
The target is the same in data set [13]. Nature of the data set: Induction of alpha-synuclein aggregation in PBS buffer assessed as transition of alpha-synuclein from natively unfolded monomer to cross-beta-sheet conformation after 96 hrs by CD spectroscopy.
The target is the same in data set [14]. As to the kind of experiment: Induction of alpha-synuclein aggregation in PBS buffer assessed as formation of alpha-synuclein fibrils after 48 hrs by electron microscopy.
The nature of data set [15]: Cytotoxicity against human SH-SY5Y cells overexpressing alpha-synuclein after 48 hrs by MTT assay. It counts as cell-based. The settings on record: read-out: LD50.
Data set [16] deals with Alpha-synuclein (Homo sapiens) (UniProt P37840). As to the kind of experiment: Induction of alpha-synuclein aggregation in PBS buffer assessed as fluorescence after 44 to 305 hrs in presence of competitive Schiff-base inhibitor aminoguanidine by Thioflavin T fluorescence assay.
A short description of data set [17]: Cytotoxicity against human SH-SY5Y cells overexpressing alpha-synuclein after 48 hrs by LDH assay. The data set is classed as cell-based. As to conditions: read-out: LD50.
The target of data set [18] is Alpha-synuclein (Homo sapiens) (UniProt P37840). As to the kind of experiment: Induction of alpha-synuclein aggregation in PBS buffer assessed as formation of alpha-synuclein fibrils after 96 hrs by electron microscopy.

Turning to `CC(C)CCC[C@@H](C)[C@H]1CC[C@H]2[C@@H]3CC=C4C[C@@H](O)CC[C@]4(C)[C@H]3CC[C@]12C` [CHOLESTEROL], the Activity in data set [1] was determined as 120 a.u; in [2], 100%; in [3], 2%; in [4], 70%; in [5], 4%; in data set [6], 30 a.u. In addition, the Activity was 0% in data set [7]; 25 a.u in data set [8]; 19% in [9]; “Non-toxic” in [10]; “Non-toxic” in data set [11]; 0 a.u in [12]. The Activity in [13] was 4%.
For `CC(C)CCC[C@@H](C)[C@H]1CC[C@H]2[C@H](CC(=O)O)[C@@H]([C@@]3(C)CC[C@H](O)CC3=O)CC[C@]12C`, the Activity in data set [1] is 500 a.u; in data set [2] it was 100%; in [3], 50%; in [4], 70%; in [6], 410 a.u; in data set [7], 40%. For the same molecule, the Activity in data set [8] was 330 a.u; in data set [12] it was 220 a.u; in data set [13], 60%. For the same molecule, the result in data set [14], in data set [16] and in [18] was Active. Further, the CC50 at 48 h in data set [15] and in data set [17] was 55 µM in each case.
